Test results published in patent US20230286930A1, “N -SUBSTITUTED 4-(1,3-ARYLOXAZOLO-2-YL)PHENYL COMPOUNDS FOR THE TREATMENT AND PROPHYLAXIS OF HEPATITIS B VIRUS INFECTION” (Hoffmann-La Roche Inc., priority 2020, published 2023).

Key:
[1] = PHH natural infection assay, cytotoxicity (Cell Counting Kit-8); type: cell-based; settings: human
Summary of the method: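 Primary human hepatocytes infected with HBV (200 GE/cell, 4% PEG8000) for 24 h, then sandwich-cultured 72 h. Compounds were added in two 72-h refreshes. Supernatant HBsAg/HBeAg measured by AlphaLISA and HBV DNA by quantitative fluorescence kit. Cytotoxicity read by CCK-8.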

HBsAg = assay: PHH natural infection assay, HBsAg (alphalisa); type: cell-based, HBV; settings: Hepatitis B virus, read-out: HBsAg IC50
Summary of the method: (§1)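 Primary human hepatocytes infected with HBV at 200 GE/cell with 4% PEG8000 for 24 h, then sandwich-cultured 72 h. Compounds applied in two 72-hour treatments; supernatant HBsAg and HBeAg measured by AlphaLISA.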

HBeAg = assay: PHH natural infection assay, HBeAg (alphalisa); type: cell-based, HBV; settings: Hepatitis B virus, read-out: HBeAg IC50
Summary of the method: as §1

O=C(Nc1ccc(-c2nc3cccnc3o2)cc1)C1COC1 [Example 68, N-(4-oxazolo[5,4-b]pyridin-2-ylphenyl)oxetane-3-carboxamide]
CC50 at 144 h [1]: > 100 µM | IC50 (HBsAg): 4.51 µM | IC50 (HBeAg): 4.22 µM
